Data: patent US20220054447A1, “CANNABIS COMPOSITIONS AND METHODS” (priority 2018, published 2022)
Marks after values point to notes of the source that are not given here.

How the values were obtained:
[1] = cited from earlier work; for log P (octanol/water partition coefficient): United Nations Office on Drugs and Crime, 2009
[2] = 9-month stability of dried cannabis drug stored in a vault (not under nitrogen); format: physicochemical; design: Analyte content, Nov. 17, 2016: unit not given beside the values; conditions: for % Change from Day 0: 9-month storage, <0.05 assumed to be 0.05 for calculation; for Analyte content, Aug. 10, 2017 / Analyte content, Nov. 17, 2016: dried cannabis drug stored in a vault, not under nitrogen; for Analyte content, Aug. 10, 2017: 9 months; for Analyte content, Nov. 17, 2016: Day 0
Text: A schematic depicting the production of exemplary cannabinoic acids and subsequent transformation to the related neutral form by conditions such as oxidation, heat and time is shown in FIG. 3.

[3] = Dose uniformity of pellets; format: physicochemical
Text: The dose uniformity studies show improvement subsequent to optimization of the blending process. […] After optimizing the process, the dose uniformity for clinical batches was 5.59% and 5.13% for THC and THCA, respectively.

[4] = Phase 1 clinical batch, before optimization of blending
[5] = clinical batches after optimizing the process

SMILES	log P (octanol/water partition coefficient) [1]	Solubility in ethanol [1]	Solubility in water [1]	% Change from Day 0 [2]	Analyte content, Aug. 10, 2017 [2]	Analyte content, Nov. 17, 2016 [2]	Dose uniformity, % variability [3, 4]	Dose uniformity, % variability [3, 5]	Stability ([1]; pure THC, Mechoulam 1970, NIH 1996)
C=C(C)[C@@H]1CCC(C)=C[C@H]1c1c(O)cc(CCCCC)cc1O [CBD, cannabidiol, reference compound]	5.79	soluble in ethanol	not soluble in water	1260%	0.68	<0.05*			
C=C(C)[C@@H]1CCC(C)=C[C@H]1c1c(O)cc(CCCCC)c(C(=O)O)c1O [CBDA, cannabidiolic acid]				33.9%	2.03	3.07			
CCCCCc1cc(O)c(C/C=C(\C)CCC=C(C)C)c(O)c1 [CBG, cannabigerol]				140%	0.12	<0.05*			
CCCCCc1cc(O)c(C/C=C(\C)CCC=C(C)C)c(O)c1C(=O)O [CBGA, cannabigerolic acid]					0.26	0.37			
CCCCCc1cc(O)c2c(c1)OC(C)(C)[C@@H]1CCC(C)=C[C@@H]21 [THC, tetrahydrocannabinol, reference compound]	6.99			733%	1.75	0.21	12.82%	5.59%	unstable in air, light, and at high temperatures
CCCCCc1cc2c(c(O)c1C(=O)O)[C@@H]1C=C(C)CC[C@H]1C(C)(C)O2 [THCA, tetrahydrocannabinolic acid]					6.02	9.68	15.07%	5.13%	
